Laboratory results: paper PMC8647151, “PLK1‐dependent phosphorylation restrains EBNA2 activity and lymphomagenesis in EBV‐infected mice” (EMBO Reports, 2021)
Values joined by “and” are separate entries in the source; they are usually repeats but may differ in a detail not shown here. Identical values can stand only once. Where a SMILES comes first, the peptide text is derived from it. [ ]: non-standard residue; d: D form. pS = N[C@@H](COP(=O)(O)O)C(=O)O

How the values were obtained:
[1] = target: PLK1 polo-box domain (PBD), PLK1 residue 345-603 (UniProt P53350); assay: ITC; ITC200; 100 µM PBD in the cell titrated with 1 mM peptide, 25 injections of 1.5 µl, 25°C, triplicates
[2] = target: GST-EBNA2 446-474 double-mutant S457A/T465V (Epstein-Barr virus (B95-8)) (UniProt P12978); assay: pull-down; GST-EBNA2 446-474 (wt or phosphorylation mutants) on beads as bait; cellular proteins from DG75 cells; Western blot with GST- and p300-specific antibodies, signals quantified and normalized to wt
[3] = target: polo-like kinase 1 (PLK1) (UniProt P53350); assay: GST pull-down from cell extract; details: reference: wild type, Cyclin B/CDK1 treated; sites S379
[4] = target: T1, PLK1 PBD (PLK1 residue 345‐603) (Homo sapiens, UniProt P53350); assay: Isothermal titration calorimetry of EBNA2 heptapeptides with PLK1 PBD; format: binding; details: ITC200, 100 µM PBD in the cell titrated with 1 mM peptide, 25°C, triplicates
T1 construct: His6 (N); made in house; host or cells: E. coli Rosetta (DE3)
Method: PLK1 frequently binds to phosphorylated substrates that are primed by cellular kinases like Cyclin B/CDK1. These substrates share a consensus motif [Pro/Phe]‐[Φ/Pro]‐[Φ]‐[Thr/Gln/His/Met]‐Ser‐[pThr/pSer]‐[Pro/X] (Φ represents hydrophobic and X represents any residue) specific for binding to the Polo‐box binding domain (PBD) of PLK1 (Elia et al, [2003a]). […] Mutants involving the respective residues were tested for PLK1 binding by transfection and co‐precipitation. […] To specify the contribution of EBNA2 residue S379 phosphorylation, a heptapeptide (PNTSSPS) and phospho‐heptapeptide (PNTSpSPS) were tested for PBD (PLK1 residue 345‐603) binding by isothermal titration calorimetry (ITC). […] GST‐EBNA2 342–422 expressed and purified from bacterial extracts did hardly pulldown any PLK1 from cellular extracts. […] Also, as shown by transfection, EBNA2 S379A binding to PLK1 was severely impaired (Fig 2H). We conclude that EBNA2 residue S379 is a PLK1 docking site primed by Cyclin B/CDK1 phosphorylation.
Experiments were performed on a ITC200 instrument in triplicates and analyzed with the Malvern software. 100 µM PBD was provided in the cell and titrated with 1 mM concentration of wild type (PNTSSPS) or phosphopeptide (PNTSpSPS) with 25 times 1.5 µl injections at 25°C.

[5] = system: PLK1; assay: Kinase assay on EBNA2/PLK1 co-precipitates with endogenous PLK1; format: biochemical; details: Volasertib 40 nM, [γ-32P] ATP
Method: Monoclonal antibodies specific for His6 (2F12), EBNA2 (R3), glutathione S transferase (6G9), HA‐tag (3F10), BSA (3C5), and LMP1 (1G6) were provided by the antibody facility of the Helmholtz Center Munich. Commercial providers were as follows: GAPDH (Mab374; Merck Millipore), Flag (M2; Sigma‐Aldrich), PLK1 (ab17056; Abcam), GFP (7.1 and 13.1; Roche), and a p300‐specific serum (C20; Santa Cruz). For immunoprecipitations and Western blotting, the equivalent of 1 × 10^7 cells was lysed in 500 µl of lysis buffer (1% NP‐40, 10 mM Tris–HCl pH 7.4, 3% glycerol, 150 mM NaCl, 1 mM EDTA) supplemented with cOmplete protease inhibitor and PhoStop phosphatase inhibitor (Roche) incubated for 30 min at 4°C with constant rolling and for 30 min on ice. The lysate was cleared by centrifugation (16,000 g, 15 min). 1 µg of purified antibodies or 100 µl of hybridoma supernatants was coupled to Protein A or G beads and added to the cleared lysates, incubated for 2 h at 4°C, and washed with lysis buffer, and the protein was eluted with Laemmeli buffer. For GST‐pulldown, antibody‐coated beads were replaced by GST fusion protein‐coated beads. 20 µg protein of total cell lysates or 5 × 10^6 cell equivalents of one immunoprecipitation were loaded per lane. Signals on Western blots were detected by enhanced chemiluminescence (GE Healthcare) and exposed to films or Fusion FX (Vilber Lourmat). […]

Compound: EBNA2 phospho-heptapeptide PNTSpSPS
- stoichiometry N [1]: 1

Compound: histone acetylase and co-activator p300, endogenous, Q09472 1-2414
- fold p300 binding relative to wt [2]: 8 fold and 9 fold

Compound: EBNA2 (EBV nuclear antigen 2) 342-422 (from UniProt P12978) S379A, Cyclin B/CDK1 treated
- binding against the reference [3]: lost

Compound: C[C@@H](O)[C@H](NC(=O)[C@H](CC(N)=O)NC(=O)[C@@H]1CCCN1)C(=O)N[C@@H](CO)C(=O)N[C@@H](COP(=O)(O)O)C(=O)N1CCC[C@H]1C(=O)N[C@@H](CO)C(=O)O [PNTSpSPS] (H-PNTS[pS]PS-OH)
- Kd ([4]; 25 x 1.5 µl injections, read-out: dissociation constant KD): 8.19 µM

Compound: CC[C@@H]1C(=O)N(C)c2cnc(Nc3ccc(C(=O)N[C@H]4CC[C@H](N5CCN(CC6CC6)CC5)CC4)cc3OC)nc2N1C(C)C [Volasertib]
- phosphorylation of EBNA2 wt and candidate phosphorylation mutants in immunoprecipitates ([5]; EBNA2 mutants expressed in DG75 B cells, endogenous PLK1 trapped in precipitates): prevented phosphorylation of all EBNA2 proteins
- EBNA2 phosphorylation in co-precipitates of EBNA2 and endogenous PLK1 ([5]; co-precipitates from DG75 Dox HA-EBNA2 cells, 30 min, 37°C): prevented

Compound: PNTSSPS [unmodified heptapeptide of EBNA2 covering residue S379]
- PBD binding by ITC [4]: no interaction was detected
